Test results from publication PMC12508156, “Non-canonical dihydrolipoyl transacetylase promotes chemotherapy resistance via mitochondrial tetrahydrofolate signaling” (Nature Communications, 2025).
Values joined by “and” are separate entries in the source; they are usually repeats but may differ in a detail not shown here. Identical values can stand only once.

Legend:
[1] = tested on: A549cisR and KB-3-1cisR cells; assay: Senescence (p21) and autophagy (LC3-I/II, p62) markers, cell cycle; type: cell-based, human; conditions: 0.5 mM NAC, 24 h, DLAT shRNA and sublethal cisplatin
Description: 1cisR cells were transduced with DLAT-targeting shRNA and treated with sublethal doses of […]
antioxidant N-acetylcysteine (NAC). (a) Western blot analysis of p21 waf1/cip1 expression as a marker of cellular senescence. (b) Western blot analysis of LC3-I/II and p62 as markers of autophagy. (c) Cell cycle distribution was assessed by flow cytometry following propidium iodide staining. (d) Intracellular ROS levels were measured using the H2DCFDA probe. Error bars represent SD and are from 3 independent biological replicates for (c,d). P values were determined by one-way ANOVA.
(1 picture or pasted object on this page, not shown here)

Bcl-xL = assay: Immunoblotting of apoptosis-associated proteins; type: cell-based, human; conditions: NAC in cisplatin-treated DLAT knockdown cells (Fig. 3h)
Description: Cellular ROS (upper), apoptosis (middle), and cell viability (lower) were measured. […] Mito-TEMPO (10 μM) or flag-tagged catalase was introduced in cisplatin-treated cells. Mitochondrial ROS and cytoplasmic hydrogen peroxide were measured by mitoSOX staining and luminescence detection, respectively. g Immunoblotting of apoptosis-associated proteins. […] Fold changes were obtained by comparing the DLAT knockdown group to the control group. […] P values were determined by two-tailed Student’s t-test (a, i) and one-way ANOVA for the rest. Source data are provided as a Source Data file.

[2] = tested on: cisplatin-resistant cancer cells; assay: Drug sensitivity of cancer cells (apoptosis, cell viability); type: cell-based, human; conditions: for sensitization of cancer cells to cisplatin treatment: 10 μM inhibitor and sublethal doses of cisplatin, 48 h (Fig. 4e, f); for sensitization of cancer cells to the agent by impairment of DLAT: KB-3-1cisR and A549cisR, DLAT knockdown vs control, sublethal doses 48 h: 50 μM carboplatin, 10 nM gemcitabine, 10 μM etoposide, 0.5 μM pemetrexed, 3 nM paclitaxel, 1 μM erlotinib
Description: Cell viability was determined using the CellTiter-Glo Luminescent Cell Viability Assay. […] Subsequently, the cells were cultured in complete medium for an additional 10 days, and the resulting colonies were visualized by staining with crystal violet and quantified using ImageJ software. For cell cycle analysis, cells fixed with 70% ethanol were stained with RNase A (100 µg/mL) and propidium iodide (50 μg/ml) for 30 min at 37 °C, and DNA content distribution was measured using flow cytometry (BD Symphony A3) and analyzed with FlowJo software (v10.9). Apoptotic cell death was assessed via FITC-conjugated annexin V and propidium iodide staining.

MTHFD1 = conditions: concurrently inhibiting the ubiquitous isozyme MTHFD1; cited from earlier work
Excerpt: Inhibitors targeting components of PDC include a non-selective PDK inhibitor, dichloroacetate (DCA)[39]. However, to the best of our knowledge, no specific inhibitor is available to target non-classical DLAT signaling that is independent of PDC. LY345899 and DS18561882 have been reported to be MTHFD2 inhibitors, and are a folate analog and a tricyclic coumarin-based compound that competitively binds to the substrate binding site[40]–[42]. However, these inhibitors are unselective, concurrently inhibiting the ubiquitous isozyme MTHFD1 and thus posing a potential safety risk; therefore, further ...

DLAT = DLAT mRNA, DLAT protein and cell viability after elesclomol; type: cell-based, human; conditions: increasing doses up to 1 µM for 48 h
Description: Elesclomol was administered at increasing doses up to 1 µM for 48 h. The levels of DLAT mRNA (a), DLAT protein (b), and cell viability (c) are shown. Error bars represent the standard deviation (SD) and from 3 independent biological replicates for (a,c). P values were obtained by one-way ANOVA. 1 (1 picture or pasted object on this page, not shown here)

KB-3-1cisR cells = assay: Apoptotic cell death (annexin V/PI staining); type: cell-based, human; conditions: KB-3-1cisR; 5 mM DCA and/or sublethal cisplatin, 48 h; n=1-3: biological replicates
A549cisR cells = assay: Apoptotic cell death (annexin V/PI staining); type: cell-based, human; conditions: A549cisR; 5 mM DCA and/or sublethal cisplatin, 48 h; n=1-3: biological replicates
MT-CO2 = assay: MT-CO1, MT-CO2, COXIV expression (immunoblot, quantitative RT-PCR); type: cell-based, human
Description: Apoptosis (top) and cell viability (bottom) were determined. 10-formyl-THF rescues cisplatin-resistant cell growth (c) and MT-CO2 expression (d) in cells lacking K44 MTHFD2 acetylation. Cisplatin-treated cells expressing K44R MTHFD2 were subjected to 10 μM 10-formyl-THF for 24 h followed by annexin V staining, cell viability assay, and assessment of MT-CO1, MT-CO2, and COXIV levels by immunoblotting and quantitative RT-PCR. Cells expressing the acetyl-mimetic mutant form of MTHFD2 K44Q were included for comparison. Effect of MT-CO2 overexpression on cisplatin-resistant cell growth in cells lacking K44 MTHFD2 acetylation (e) or DLAT (f) by K44R MTHFD2 expression or DLAT knockdown, respectively. Data are mean ± SD from 4 independent biological replicates for (d) and 3 for (a–c, e, f). P values were determined by one-way ANOVA. Source data are provided as a Source Data file.
Supplementary Fig. 8: POLRMT is required for 10-formyl-THF-induced MT-CO2 expression in cisplatin-resistant cells. […]
absence of 10-formyl-THF (10 µM) for 24 h. The levels of MT-CO2, mitochondrial transcription factors, and myc-MTHFD2 were assessed by immunoblotting. […] MT-CO2 mRNA and protein levels were assessed by quantitative RT-PCR and immunoblotting, respectively. […] P values were determined by one-way ANOVA. […]

For `CC(=O)N[C@@H](CS)C(=O)O` [NAC, N-acetyl-L-cysteine], the “senescence, autophagy, or cell cycle progression” value [1] was “did not alter”, the Bcl-xL expression (Bcl-xL) was “partially restored” and the “cisplatin-mediated ROS and apoptosis in DLAT knockdown cells” value ([2]; NAC 0.5 mM, cisplatin-treated DLAT knockdown cells (Fig. 3d)) was “significantly lowered”.
In the case of `Nc1nc2c(c(=O)[nH]1)N1C(=O)N(c3ccc(C(=O)N[C@@H](CCC(=O)O)C(=O)O)cc3)CC1CN2` (stereo partly drawn) [LY345899], the “selectivity versus isozyme MTHFD1” value (MTHFD1) is given as “unselective” and the “sensitization of cancer cells to cisplatin treatment” value [2] is given as “sensitized”.
With `CN(NC(=O)CC(=O)NN(C)C(=S)c1ccccc1)C(=S)c1ccccc1` [elesclomol] the “DLAT levels (gene and protein)” value (DLAT) was “did not alter”.
With `O=C(O)C(Cl)Cl` [DCA, dichloroacetate] the Apoptotic death (KB-3-1cisR cells) was 2.5 and 4.8 and 4.4, the “survival of cisplatin-resistant cancer cells” value ([2]; 5 mM DCA and cisplatin, 48 h, A549cisR and KB-3-1cisR (Fig. 2e)) was “no significant effect” and the Apoptotic death (A549cisR cells) was 9.2 and 6.2.
For `COc1cc([C@@H]2c3cc4c(cc3[C@@H](O[C@@H]3O[C@@H]5CO[C@@H](C)O[C@H]5[C@H](O)[C@H]3O)[C@H]3COC(=O)[C@H]23)OCO4)cc(OC)c1O` [etoposide], the “sensitization of cancer cells to the agent by impairment of DLAT” value (shortened to “sensitization of cancer cells … of DLAT”) [2] was “sensitized”.
With `Nc1ccn([C@@H]2O[C@H](CO)[C@@H](O)C2(F)F)c(=O)n1` [gemcitabine] the “sensitization of cancer cells … of DLAT” value [2] was “sensitized”.
In the case of `Nc1nc2c(c(=O)[nH]1)NC(CN(C=O)c1ccc(C(=O)N[C@@H](CCC(=O)O)C(=O)O)cc1)CN2` (stereo partly drawn) [10-formyl-THF, 10-Formyltetrahydrofolate], the “attenuated cell viability and elevated apoptosis induced by cisplatin and DLAT loss” value ([2]; supplementation at physiological concentrations, 48 h, DLAT knockdown cells under sublethal cisplatin (Fig. 6a, b)) is reported as “reversed” and the “MT-CO2 expression in MTHFD2 K44R cells” value (MT-CO2; 10 μM 10-formyl-THF, 24 h, cisplatin-treated cells (Fig. 6d)) is reported as “restored”.
For `Cc1c(N2CCN(C)[C@@H](C)C2)ccc2c3c(c(=O)oc12)CN(C(=O)c1ccc(NS(C)(=O)=O)c(OC(F)(F)F)c1)CC3` [DS18561882], the “selectivity versus isozyme MTHFD1” value (MTHFD1) is given as “unselective” and the “sensitization of cancer cells to cisplatin treatment” value [2] is given as “sensitized”.
With `CC1(C)CC(NC(=O)C[P+](c2ccccc2)(c2ccccc2)c2ccccc2)CC(C)(C)N1[O]` [mito-TEMPO] the “elevated apoptosis and attenuated cell viability induced by DLAT loss and cisplatin” value ([2]; Mito-TEMPO 10 μM (Fig. 3e)) was “reversed”.
In the case of `Nc1nc2[nH]cc(CCc3ccc(C(=O)N[C@@H](CCC(=O)O)C(=O)O)cc3)c2c(=O)[nH]1` [pemetrexed], the “sensitization of cancer cells … of DLAT” value [2] is reported as “sensitized”.
With `C#Cc1cccc(Nc2ncnc3cc(OCCOC)c(OCCOC)cc23)c1` [erlotinib] the “sensitization of cancer cells … of DLAT” value [2] was “not”.
With `N.N.O=C([O-])C1(C(=O)[O-])CCC1.[Pt+2]` [carboplatin] the “sensitization of cancer cells … of DLAT” value [2] was “sensitized”.
For `CC(=O)O[C@H]1C(=O)[C@@]2(C)[C@H]([C@H](OC(=O)c3ccccc3)[C@]3(O)C[C@H](OC(=O)[C@H](O)[C@@H](NC(=O)c4ccccc4)c4ccccc4)C(C)=C1C3(C)C)[C@]1(OC(C)=O)CO[C@@H]1C[C@@H]2O` [paclitaxel], the “sensitization of cancer cells … of DLAT” value [2] was “sensitized”.
In the case of `Cc1ccccc1-c1cc(=O)oc2cc(OC(C)C(=O)N(C)C)ccc12` (stereo not drawn) [IMT1], the “MT-CO2 expression induced by 10-formyl-THF” value (MT-CO2; IMT1 5 µM and 10-formyl-THF 10 µM, 24 h (Supplementary Fig. 8b)) is reported as “mitigated”.
